Assay type in all cases: biochemical
For assay [1], the target named is T1, human GST-CLK1 (129-end) (Homo sapiens, UniProt P49759).
T1 construct: purified human GST-CLK1 (129-end, Signalchem) enzyme; GST; purchased Signalchem
The assay is described as follows: GST-CLK1 enzyme inhibition, ADP-Glo kinase assay. Particulars: ATP 10 uM. The gist of the method:
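ADP formation was read by ADP-Glo luminescence after 1 h at 25° C with 3 ng human GST-CLK1 (129-end), substrate and 10 uM ATP in Tris pH 7.4 buffer containing MgCl2, BSA and DTT. Inhibition relative to untreated solvent control gave IC50 (nM), run in triplicate.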
(In ADP-Glo the light output rises with the ADP produced.)

Assay [2] addresses LRRK2 (Homo sapiens, UniProt Q5S007). The assay is described as follows: LRRK2 enzyme inhibition, ADP-Glo kinase assay. On the set-up: purchased Invitrogen PR8604B. The method, boiled down:
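ADP-Glo luminescence read after 2 h at 25° C, 10 μM ATP, 25 ng purified human LRRK2 and […] substrate in Tris-HCl pH7.4 buffer with MgCl2, BSA, DTT. Twelve final concentrations, 50 μM down to 0.000001024 μM; IC50 (nM) from inhibition relative to untreated solvent control.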

Assay [3] deals with T2, human GST-DYRK1A (full length) (Homo sapiens, UniProt Q13627).
T2 construct: purified human GST-DYRK1A (full length, Thermo scientifics) enzyme; GST; purchased Thermo scientifics
The assay is described as follows: GST-DYRK1A enzyme inhibition, ADP-Glo kinase assay. Particulars: read-out: DYRK1 IC50. The gist of the method:
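ADP-Glo luminescence quantified kinase activity after a 1 h, 25° C reaction of 10 ng full-length GST-tagged human DYRK1A, substrate and 10 uM ATP in Tris-HCl buffer pH 7.4 with MgCl2, BSA and DTT. Triplicate IC50 values (nM) calculated relative to untreated solvent control.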

For assay [4], the target named is LRRK2 (G2019S) (Homo sapiens, UniProt Q5S007, G2019S). The assay is described as follows: LRRK2 G2019S enzyme inhibition, ADP-Glo kinase assay. On the set-up: purchased SignalChem L10-12GG. The method, boiled down: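 Activity read as ADP-Glo luminescence, normalized to untreated solvent control, with IC50 (nM) fitted over 12 final compound levels (top 50 μM). Reaction: 2 h, 25° C, human LRRK2 G2019S 16 ng, ATP 25 μM, substrate 0.2 μg, in Tris-HCl pH 7.4 with MgCl2, BSA and DTT.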
Sequence of LRRK2 (G2019S) (Q5S007 970-2527 G2019S limits assumed): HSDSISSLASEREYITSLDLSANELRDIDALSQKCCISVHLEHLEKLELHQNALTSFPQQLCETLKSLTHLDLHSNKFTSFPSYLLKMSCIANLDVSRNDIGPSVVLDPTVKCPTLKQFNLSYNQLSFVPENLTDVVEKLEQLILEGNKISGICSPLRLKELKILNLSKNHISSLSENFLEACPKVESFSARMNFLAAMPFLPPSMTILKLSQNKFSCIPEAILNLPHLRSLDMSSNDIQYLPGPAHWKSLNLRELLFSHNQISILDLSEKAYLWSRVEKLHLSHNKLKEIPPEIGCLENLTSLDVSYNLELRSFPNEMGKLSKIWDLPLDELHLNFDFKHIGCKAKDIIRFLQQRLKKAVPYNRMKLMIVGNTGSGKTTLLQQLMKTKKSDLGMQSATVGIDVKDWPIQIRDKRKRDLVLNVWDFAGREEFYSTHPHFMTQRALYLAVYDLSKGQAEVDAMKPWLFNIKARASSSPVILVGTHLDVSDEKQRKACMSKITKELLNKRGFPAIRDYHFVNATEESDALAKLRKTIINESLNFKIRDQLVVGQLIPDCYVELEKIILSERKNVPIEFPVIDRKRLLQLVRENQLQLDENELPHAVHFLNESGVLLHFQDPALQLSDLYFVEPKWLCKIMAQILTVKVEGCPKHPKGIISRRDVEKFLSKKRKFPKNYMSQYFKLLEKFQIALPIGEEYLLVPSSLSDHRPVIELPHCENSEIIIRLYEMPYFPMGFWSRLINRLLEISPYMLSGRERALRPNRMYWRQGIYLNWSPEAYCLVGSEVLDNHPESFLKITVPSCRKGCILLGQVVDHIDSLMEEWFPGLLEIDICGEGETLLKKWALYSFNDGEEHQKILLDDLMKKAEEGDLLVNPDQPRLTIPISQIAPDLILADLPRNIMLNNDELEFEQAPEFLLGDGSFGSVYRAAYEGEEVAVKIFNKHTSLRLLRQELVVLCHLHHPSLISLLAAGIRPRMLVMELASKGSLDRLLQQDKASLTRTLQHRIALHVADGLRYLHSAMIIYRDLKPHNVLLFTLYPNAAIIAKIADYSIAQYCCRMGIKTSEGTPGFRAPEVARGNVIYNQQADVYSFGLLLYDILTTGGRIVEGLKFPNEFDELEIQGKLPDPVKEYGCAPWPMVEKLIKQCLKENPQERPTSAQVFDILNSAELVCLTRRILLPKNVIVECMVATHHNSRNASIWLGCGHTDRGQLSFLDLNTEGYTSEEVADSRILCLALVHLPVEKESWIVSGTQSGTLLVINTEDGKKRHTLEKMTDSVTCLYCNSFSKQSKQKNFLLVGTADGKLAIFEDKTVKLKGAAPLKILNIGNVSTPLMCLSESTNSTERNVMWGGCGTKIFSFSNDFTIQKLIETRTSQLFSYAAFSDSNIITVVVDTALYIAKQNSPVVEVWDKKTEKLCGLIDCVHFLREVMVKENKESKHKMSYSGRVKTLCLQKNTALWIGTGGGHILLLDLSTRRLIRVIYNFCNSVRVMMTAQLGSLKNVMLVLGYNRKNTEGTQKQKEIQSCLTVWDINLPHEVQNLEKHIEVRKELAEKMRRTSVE

pIC50: −log10 of the molar value.

Sequence of LRRK2 (Q5S007 970-2527 limits assumed): as the sequence (Q5S007 970-2527 G2019S limits assumed) above, with S1050G counted along it
T1 sequence (P49759 129-484 limits assumed): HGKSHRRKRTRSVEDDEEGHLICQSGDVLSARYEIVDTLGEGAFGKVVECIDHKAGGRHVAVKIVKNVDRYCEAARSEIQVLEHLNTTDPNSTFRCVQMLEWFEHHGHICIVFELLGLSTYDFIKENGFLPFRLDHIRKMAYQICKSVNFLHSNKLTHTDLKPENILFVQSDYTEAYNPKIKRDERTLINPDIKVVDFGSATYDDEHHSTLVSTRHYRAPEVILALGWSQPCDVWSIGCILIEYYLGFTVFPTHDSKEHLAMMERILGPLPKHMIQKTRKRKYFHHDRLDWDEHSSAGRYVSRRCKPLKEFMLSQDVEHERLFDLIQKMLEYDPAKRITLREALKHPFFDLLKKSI

For the compound `COc1cc(S(=O)(=O)N2CCC(N3CCOCC3)CC2)ccc1Nc1cc(NC2CCCCC2)c2c(C(F)(F)F)c[nH]c2n1` [Example 183, N^4-cyclohexyl-N^6-(2-methoxy-4-((4-morpholinopiperidin-1-yl)sulfonyl)phenyl)-3-(trifluoromethyl)-1H-pyrrolo[2,3-b]pyridine-4,6-diamine], the negative-log IC50 (pIC50) in assay [1], in assay [2], in assay [3] and in assay [4] was 6.00 to 6.52 throughout.

As for `CCCNc1cc(Nc2ccc(S(C)(=O)=O)cc2OC)nc2[nH]cc(C(F)(F)F)c12` [Example 200, N^6-(2-methoxy-4-(methylsulfonyl)phenyl)-N^4-propyl-3-(trifluoromethyl)-1H-pyrrolo[2,3-b]pyridine-4,6-diamine], the pIC50 in assay [1], in assay [2], in assay [3] and in assay [4] was 6.00 to 6.52 each time.

For `N#Cc1c[nH]c2nc(Nc3ccc(C(=O)N4CCOCC4)c4c3OCCO4)cc(NC3CC3)c12` [Example 111, 4-(cyclopropylamino)-6-((8-(morpholine-4-carbonyl)-2,3-dihydrobenzo[b] [1,4]dioxin-5-yl)amino)-1H-pyrrolo[2,3-b]pyridine-3-carbonitrile], the pIC50 in assay [1] is 6.52 to 7.00; in assay [2] it was more than 7.00; in assay [3] it was 6.00 to 6.52; in assay [4], more than 7.00.

Turning to `COCCNc1cc(Nc2ccc(S(C)(=O)=O)cc2OC)nc2[nH]cc(C(F)(F)F)c12` [Example 201, N^6-(2-methoxy-4-(methylsulfonyl)phenyl)-N^4-(2-methoxyethyl)-3-(trifluoromethyl)-1H-pyrrolo[2,3-b]pyridine-4,6-diamine], the pIC50 in assay [1] is 6.00 to 6.52; in assay [2], 6.52 to 7.00; in assay [3] it was 6.00 to 6.52; in assay [4], 6.00 to 6.52.

`CNc1cc(Nc2ccc(S(C)(=O)=O)cc2OC)nc2[nH]cc(C#N)c12` [Example 123]: the pIC50 was 6.00 to 6.52 in assay [1], more than 7.00 in assay [2], 6.00 to 6.52 in assay [3] and more than 7.00 in assay [4].

For the compound `CS(=O)(=O)CCNc1cc(Nc2ccc(C(=O)N3CCC(N4CCOCC4)CC3)c3c2OCCO3)nc2[nH]cc(C(F)(F)F)c12` [Example 165, (8-((4-((2-(methylsulfonyl)ethyl)amino)-3-(trifluoromethyl)-1H-pyrrolo[2,3-b]pyridin-6-yl)amino)-2,3-dihydrobenzo[b] [1,4]dioxin-5-yl)(4-morpholinopiperidin-1-yl)methanone], the pIC50 in assay [1], in assay [2], in assay [3] and in assay [4] was more than 7.00 each time.

`COc1cc(S(C)(=O)=O)ccc1Nc1cc(NC(C)C)c2cc[nH]c2n1` [Example 28, N^4-isopropyl-N^6-(2-methoxy-4-(methylsulfonyl)phenyl)-1H-pyrrolo[2,3-b]pyridine-4,6-diamine]: the pIC50 was 6.00 to 6.52 in assay [1], 6.52 to 7.00 in assay [2], 6.00 to 6.52 in assay [3] and 6.00 to 6.52 in assay [4].

Consider `COCCNc1cc(Nc2ccc(C(=O)N3CCC(N4CCOCC4)CC3)c3c2OCCO3)nc2[nH]cc(C(F)(F)F)c12` [Example 164, (8-((4-((2-methoxyethyl)amino)-3-(trifluoromethyl)-1H-pyrrolo[2,3-b]pyridin-6-yl)amino)-2,3-dihydrobenzo[b] [1,4]dioxin-5-yl)(4-morpholinopiperidin-1-yl)methanone], for which the pIC50 in assay [1], in assay [2], in assay [3] and in assay [4] was more than 7.00 in each case.

On to `CCNc1cc(Nc2ccc(S(C)(=O)=O)cc2OC)nc2[nH]ccc12` [Example 26, N^4-ethyl-N^6-(2-methoxy-4-(methylsulfonyl)phenyl)-1H-pyrrolo[2,3-b]pyridine-4,6-diamine], for which the pIC50 was 6.00 to 6.52 in assay [1], more than 7.00 in assay [2], 6.00 to 6.52 in assay [3] and more than 7.00 in assay [4].

As to `COc1cc(S(C)(=O)=O)ccc1Nc1cc(NCC(C)C)c2cc[nH]c2n1` [Example 29, N^4-isobutyl-N^6-(2-methoxy-4-(methylsulfonyl)phenyl)-1H-pyrrolo[2,3-b]pyridine-4,6-diamine], the pIC50 in assay [1] is 6.00 to 6.52; in assay [2], more than 7.00; in assay [3], 6.00 to 6.52; in assay [4], 6.52 to 7.00.

For `CNc1cc(Nc2ccc(C(=O)N3CCOCC3)c3c2OCCO3)nc2[nH]cc(C#N)c12` [Example 106, 4-(methylamino)-6-((8-(morpholine-4-carbonyl)-2,3-dihydrobenzo[b] [1,4]dioxin-5-yl)amino)-1H-pyrrolo[2,3-b]pyridine-3-carbonitrile], the pIC50 in assay [1] was 6.00 to 6.52; in assay [2] it was more than 7.00; in assay [3], 6.00 to 6.52; in assay [4], more than 7.00.

For `COc1cc(S(C)(=O)=O)ccc1Nc1cc(C2CC2)c2c(C#N)c[nH]c2n1` [Example 229, 4-cyclopropyl-6-((2-methoxy-4-(methylsulfonyl)phenyl)amino)-1H-pyrrolo[2,3-b]pyridine-3-carbonitrile], the pIC50 was 6.00 to 6.52 in assay [1], 6.52 to 7.00 in assay [2], 6.00 to 6.52 in assay [3] and 6.00 to 6.52 in assay [4].

With `CCCNc1cc(Nc2ccc(C(=O)N3CCOCC3)c3c2OCCO3)nc2[nH]cc(C#N)c12` [Example 108, 6-((8-(morpholine-4-carbonyl)-2,3-dihydrobenzo[b] [1,4]dioxin-5-yl)amino)-4-(propylamino)-1H-pyrrolo[2,3-b]pyridine-3-carbonitrile], the pIC50 in assay [1] is 6.00 to 6.52; in assay [2], more than 7.00; in assay [3], 6.00 to 6.52; in assay [4], more than 7.00.

`N#Cc1c[nH]c2nc(Nc3ccc(C(=O)N4CCC(N5CCOCC5)CC4)c4c3OCCO4)cc(NC3CCC3)c12` [Example 117, 4-(cyclobutylamino)-6-((8-(4-morpholinopiperidine-1-carbonyl)-2,3-dihydrobenzo[b] [1,4]dioxin-5-yl)amino)-1H-pyrrolo[2,3-b]pyridine-3-carbonitrile]: the pIC50 in assay [1] is more than 7.00; in assay [2] it was more than 7.00; in assay [3] it was 6.00 to 6.52; in assay [4], more than 7.00.

Consider `CCNc1cc(Nc2ccc(S(C)(=O)=O)cc2OC)nc2[nH]cc(C(F)(F)F)c12` [Example 180, N^4-ethyl-N^6-(2-methoxy-4-(methylsulfonyl)phenyl)-3-(trifluoromethyl)-1H-pyrrolo[2,3-b]pyridine-4,6-diamine], for which the pIC50 in assay [1], in assay [2], in assay [3] and in assay [4] was 6.00 to 6.52 each time.

Turning to `CNc1cc(Nc2ccc(S(C)(=O)=O)cc2OC)nc2[nH]ccc12` [Example 25, N^6-(2-methoxy-4-(methylsulfonyl)phenyl)-N^4-methyl-1H-pyrrolo[2,3-b]pyridine-4,6-diamine], the pIC50 in assay [1] is 6.00 to 6.52; in assay [2], 6.52 to 7.00; in assay [3], 6.00 to 6.52; in assay [4] it was more than 7.00.

Regarding `CCNc1cc(Nc2ccc(S(=O)(=O)N3CCOCC3)cc2OC)nc2[nH]cc(Cl)c12` [Example 65, 3-chloro-N^4-ethyl-N^6-(2-methoxy-4-(morpholinosulfonyl)phenyl)-1H-pyrrolo[2,3-b]pyridine-4,6-diamine], the pIC50 in assay [1] is 6.00 to 6.52; in assay [2] it was 6.52 to 7.00; in assay [3], 6.00 to 6.52; in assay [4] it was 6.00 to 6.52.

By pIC50 is commonly meant the IC50 on a negative log10 scale, so that one unit is a factor of ten.

Source of the values: patent US12240844B2 (Voronoi, Inc., priority 2019, dated 2025).
